The target in the assay is T1, SYK kinase (Homo sapiens, UniProt P43405).
T1 construct: purchased Invitrogen, Carlsbad
The assay is described as follows: SYK Assay (OMNIA KINASE ASSAY, SOX peptide fluorescence). Format: biochemical. The following applies: apparent Ki calculated from the IC50 using the Cheng-Prusoff equation; 1 mM ATP, 30° C.; read-out: SYK Activities: Ki. The protocol:
In the assay OMNIA® KINASE ASSAY by Invitrogen Corporation (Carlsbad) the effect of invention of a compound on the phosphorylation is determined by measurement of fluorescence intensity of a chelation-enhanced fluorophore called SOX. Upon phosphorylation of the peptide by the kinase of interest, Mg2+ is chelated to form a bridge between the SOX moiety and the phosphate group that is transferred to the specific tyrosine on the peptide. The fluorescence intensity is directly proportional to the amount of peptide phosphorylation.
To the wells of an 384 well small volume plate (Greiner, Frickenhausen) are added (i) the compound under test in 5% DMSO/distilled water (2 μl), (ii) 16 μl of the master mix containing ATP, DTT, Kinase Reaction Buffer, Omina Peptide Substrate Tyr 7 resulting in a final concentration of 1 mM ATP, 0.2 mM DTT and 10 μM Peptide Substrate.
The Master Mix and the assay plate was incubated to reaction temperature before the measurement (30° C.). The reaction was started with addition of (iii) 2 μl 4 μg/ml SYK kinase (Invitrogen, Carlsbad). During measurement fluorescence intensitiy readings were collected using a TECAN M1000 at a wavelength of λex 360/λem 485 nm every 30 s for 30 minutes. The reaction velocity was plotted versus the inhibitor concentration to determine the […] using XLFit 5.0 (IDBS, Guildford) to fit to a sigmoidal dose response curve, and the apparent Ki values were calculated from the IC50 using the Cheng-Prusoff equation (Cheng, Y.; Prusoff, W. H. Biochem. Pharmacol. 22, 3099-3108, 1973).

The values that follow come from patent publication US9802937B2, “Substituted pyrazolo{4,3-D}pyrimidines as kinase inhibitors” (ORIGENIS GMBH, priority 2011, dated 2017).

On to `c1ccc(-c2nc(Nc3ccc(N4CCCCC4)cc3)c3[nH]ncc3n2)cc1` [Example #3, 5-phenyl-N-(4-(piperidin-1-yl)phenyl)-1H-pyrazolo[4,3-d]pyrimidin-7-amine], for which the Ki was 10 to 100 nM.

As for `NC(=O)c1ccc(Nc2nc(-c3ccccc3)nc3cn[nH]c23)cc1` [Example #11, 4-((5-phenyl-1H-pyrazolo[4,3-d]pyrimidin-7-yl)amino)benzamide], the Ki was below 10 nM.

As for `N#Cc1ccc(Nc2nc(-c3ccccc3)nc3cn[nH]c23)cc1` [Example #12, 4-((5-phenyl-1H-pyrazolo[4,3-d]pyrimidin-7-yl)amino)benzonitrile], the Ki is 10 to 100 nM.

With `c1cc(-c2nc(Nc3ccc4[nH]ncc4c3)c3[nH]ncc3n2)ccn1` [Example #13, N-(1H-indazol-5-yl)-5-(pyridin-4-yl)-1H-pyrazolo[4,3-d]pyrimidin-7-amine], the Ki was 100 to 1000 nM.

Turning to `c1cc(-c2nc(Nc3ccc(N4CCOCC4)cc3)c3[nH]ncc3n2)ccn1` [Example #19, N-(4-morpholinophenyl)-5-(pyridin-4-yl)-1H-pyrazolo[4,3-d]pyrimidin-7-amine], the Ki is 10 to 100 nM.

With `CN1CCC(c2nc(Nc3ccc(Cl)cc3)c3[nH]ncc3n2)CC1` [Example #29, N-(4-chlorophenyl)-5-(1-methylpiperidin-4-yl)-1H-pyrazolo[4,3-d]pyrimidin-7-amine], the Ki is 10 to 100 nM.

Regarding `c1cc2cn[nH]c2cc1Nc1nc(-c2ccc(N3CCCC3)nc2)nc2cn[nH]c12` [Example #30, N-(1H-indazol-6-yl)-5-(6-(pyrrolidin-1-yl)pyridin-3-yl)-1H-pyrazolo[4,3-d]pyrimidin-7-amine], the Ki is below 10 nM.

`CN(C)c1ccc(Nc2nc(-c3ccc(N4CCCC4)nc3)nc3cn[nH]c23)cc1` [Example #31, N1,N1-dimethyl-N4-(5-(6-(pyrrolidin-1-yl)pyridin-3-yl)-1H-pyrazolo[4,3-d]pyrimidin-7-yl)benzene-1,4-diamine]: the Ki was below 10 nM.

For `c1ccc(-c2nc(Nc3cc[nH]n3)c3[nH]ncc3n2)cc1` [Example #38, 5-phenyl-N-(1H-pyrazol-3-yl)-1H-pyrazolo[4,3-d]pyrimidin-7-amine], the Ki is 10 to 100 nM.

For `c1ccc(-c2nc(Nc3ccc(N4CCCC4)cc3)c3[nH]ncc3n2)cc1` [Example #39, 5-phenyl-N-(4-(pyrrolidin-1-yl)phenyl)-1H-pyrazolo[4,3-d]pyrimidin-7-amine], the Ki was 100 to 1000 nM.

For the compound `CN1CCC(c2nc(Nc3ccc(N4CCOCC4)cc3)c3[nH]ncc3n2)CC1` [Example #52, 5-(1-methylpiperidin-4-yl)-N-(4-morpholinophenyl)-1H-pyrazolo[4,3-d]pyrimidin-7-amine], the Ki was 10 to 100 nM.

Turning to `CN1CCC(c2nc(Nc3ccc(N4CCN(C)CC4)cc3)c3[nH]ncc3n2)CC1` [Example #53, N-(4-(4-methylpiperazin-1-yl)phenyl)-5-(1-methylpiperidin-4-yl)-1H-pyrazolo[4,3-d]pyrimidin-7-amine], the Ki is 10 to 100 nM.

In the case of `CN1CCC(c2nc(Nc3ccc4c(c3)NC(=O)CO4)c3[nH]ncc3n2)CC1` [Example #54, 6-((5-(1-methylpiperidin-4-yl)-1H-pyrazolo[4,3-d]pyrimidin-7-yl)amino)-2H-benzo[b][1,4]oxazin-3(4H)-one], the Ki was below 10 nM.

For `CN1CCC(c2nc(Nc3cc[nH]n3)c3[nH]ncc3n2)CC1` [Example #55, 5-(1-methylpiperidin-4-yl)-N-(1H-pyrazol-3-yl)-1H-pyrazolo[4,3-d]pyrimidin-7-amine], the Ki is 100 to 1000 nM.

Take `CN1CCC(c2nc(Nc3ccc(N4CCCC4)cc3)c3[nH]ncc3n2)CC1` [Example #56, 5-(1-methylpiperidin-4-yl)-N-(4-(pyrrolidin-1-yl)phenyl)-1H-pyrazolo[4,3-d]pyrimidin-7-amine]: the Ki is 100 to 1000 nM.

For the compound `c1csc(-c2nc(Nc3cc(C4CC4)[nH]n3)c3[nH]ncc3n2)c1` [Example #90, N-(5-cyclopropyl-1H-pyrazol-3-yl)-5-(thiophen-2-yl)-1H-pyrazolo[4,3-d]pyrimidin-7-amine], the Ki is 10 to 100 nM.

For the compound `CN1CCC(c2nc(Nc3cc(C4CC4)[nH]n3)c3[nH]ncc3n2)CC1` [Example #92, N-(5-cyclopropyl-1H-pyrazol-3-yl)-5-(1-methylpiperidin-4-yl)-1H-pyrazolo[4,3-d]pyrimidin-7-amine], the Ki was 10 to 100 nM.

Turning to `CN1CCC(c2nc(Nc3cccc(O)c3)c3[nH]ncc3n2)CC1` [Example #94, 3-((5-(1-methylpiperidin-4-yl)-1H-pyrazolo[4,3-d]pyrimidin-7-yl)amino)phenol], the Ki is 10 to 100 nM.

Turning to `c1ccc2sc(-c3nc(Nc4ccc5cn[nH]c5c4)c4[nH]ncc4n3)nc2c1` [Example #98, 5-(benzo[d]thiazol-2-yl)-N-(1H-indazol-6-yl)-1H-pyrazolo[4,3-d]pyrimidin-7-amine], the Ki is below 10 nM.

`c1cncc(-c2cccc(-c3nc(Nc4cc(C5CC5)[nH]n4)c4[nH]ncc4n3)c2)c1` [Example #100, N-(5-cyclopropyl-1H-pyrazol-3-yl)-5-(3-(pyridin-3-yl)phenyl)-1H-pyrazolo[4,3-d]pyrimidin-7-amine]: the Ki was 10 to 100 nM.

Take `c1cncc(-c2cccc(-c3nc(Nc4ccc(N5CCOCC5)cc4)c4[nH]ncc4n3)c2)c1` [Example #102, N-(4-morpholinophenyl)-5-(3-(pyridin-3-yl)phenyl)-1H-pyrazolo[4,3-d]pyrimidin-7-amine]: the Ki is 10 to 100 nM.

For `c1cncc(-c2cccc(-c3nc(Nc4ccc5c(c4)NCCO5)c4[nH]ncc4n3)c2)c1` [Example #103, N-(5-(3-(pyridin-3-yl)phenyl)-1H-pyrazolo[4,3-d]pyrimidin-7-yl)-3,4-dihydro-2H-benzo[b][1,4]oxazin-6-amine], the Ki was 10 to 100 nM.

With `c1cncc(-c2cccc(-c3nc(Nc4ccc5cn[nH]c5c4)c4[nH]ncc4n3)c2)c1` [Example #104, N-(1H-indazol-6-yl)-5-(3-(pyridin-3-yl)phenyl)-1H-pyrazolo[4,3-d]pyrimidin-7-amine], the Ki was 10 to 100 nM.

With `CN1CCN(c2ccc(Nc3nc(-c4ccccc4O)nc4cn[nH]c34)cc2)CC1` [Example #105, 2-(7-((4-(4-methylpiperazin-1-yl)phenyl)amino)-1H-pyrazolo[4,3-d]pyrimidin-5-yl)phenol], the Ki was 10 to 100 nM.

For `CN1CCN(c2ccc(Nc3nc(-c4cccc(N5CCOCC5)c4)nc4cn[nH]c34)cc2)CC1` [Example #106, N-(4-(4-methylpiperazin-1-yl)phenyl)-5-(3-morpholinophenyl)-1H-pyrazolo[4,3-d]pyrimidin-7-amine], the Ki is 10 to 100 nM.

On to `COc1ccc(Nc2nc(-c3cccc(N4CCOCC4)c3)nc3cn[nH]c23)cc1OC` [Example #107, N-(3,4-dimethoxyphenyl)-5-(3-morpholinophenyl)-1H-pyrazolo[4,3-d]pyrimidin-7-amine], for which the Ki was 10 to 100 nM.

In the case of `COc1ccccc1-c1nc(Nc2ccc(N3CCOCC3)cc2)c2[nH]ncc2n1` [Example #112, 5-(2-methoxyphenyl)-N-(4-morpholinophenyl)-1H-pyrazolo[4,3-d]pyrimidin-7-amine], the Ki is 10 to 100 nM.

Consider `COc1ccccc1-c1nc(Nc2cc(C3CC3)[nH]n2)c2[nH]ncc2n1` [Example #113, N-(5-cyclopropyl-1H-pyrazol-3-yl)-5-(2-methoxyphenyl)-1H-pyrazolo[4,3-d]pyrimidin-7-amine], for which the Ki was 100 to 1000 nM.
